Measured values: patent US20170190671A1, “BIS(ARYL)CATECHOL DERIVATIVES AS HERBICIDES” (E I DU PONT DE NEMOURS AND COMPANY, priority 2014, published 2017)

Assays:
Assay in all cases: Test D postemergence
Type in all cases: in vivo
Conditions in all cases: scale 0 to 100
[1] = system: blackgrass (Alopecurus myosuroides)
Excerpt: (§1) Seeds of plant species selected from bluegrass (annual bluegrass, Poa annua), blackgrass (Alopecurus myosuroides), canarygrass (Phalaris minor), chickweed (common chickweed, Stellaria media), cutleaf geranium (Geranium dissectum), galium (catchweed bedstraw, Galium aparine), downy bromegrass (Bromus tectorum), field poppy (Papaver rhoeas), field violet (Viola arvensis), green foxtail (Setaria viridis), deadnettle (henbit deadnettle, Lamium amplexicaule), Italian ryegrass (Lolium multiflorum), kochia (Kochia scoparia), lambsquarters (Chenopodium album), oilseed rape (Brassica napus), pigweed (Amaranthus retroflexus), chamomile (scentless chamomile, Matricaria inodora), Russian thistle (Salsola kali), speedwell (bird's-eye speedwell, Veronica persica), spring barley (Hordeum vulgare), spring wheat (Triticum aestivum), wild buckwheat (Polygonum convolvulus), wild mustard (Sinapis arvensis), wild oat (Avenafatua), wild radish (Raphanus raphanistrum), windgrass (Apera spica-venti), winter barley (Hordeum vulgare), and winter wheat (Triticum aestivum) were planted into a silt loam soil and treated preemergence with test chemicals formulated in a non-phytotoxic solvent mixture which included a surfactant.
(§2) At the same time, these species were planted in pots containing Redi-Earth® planting medium (Scotts Company, 14111 Scottslawn Road, Marysville, Ohio 43041) comprising spaghnum peat moss, vermiculite, wetting agent and starter nutrients and treated with postemergence applications of the test chemicals formulated in the same manner. Plants ranged in height from 2 to 18 cm (1- to 4-leaf stage). Treated plants and controls were maintained in a controlled growth environment for 14 to 21 days after which time all species were compared to controls and visually evaluated. Plant response ratings, summarized in Table D, are based on a scale of 0 to 100 where 0 is no effect and 100 is complete control. A dash (-) response means no test result.

[2] = system: canarygrass (Phalaris minor)
Excerpt: as §1, §2

[3] = system: chickweed (common chickweed, Stellaria media)
Excerpt: as §1, §2

[4] = system: cutleaf geranium (Geranium dissectum)
Excerpt: as §1, §2

[5] = system: deadnettle (henbit deadnettle, Lamium amplexicaule)
Excerpt: as §1, §2

[6] = system: field violet (Viola arvensis)
Excerpt: as §1, §2

kochia (Kochia scoparia) = system: kochia (Kochia scoparia)
Excerpt: as §1, §2

[7] = system: lambsquarters (Chenopodium album)
Excerpt: as §1, §2

[8] = system: pigweed (Amaranthus retroflexus)
Excerpt: as §1, §2

[9] = system: speedwell (bird's-eye speedwell, Veronica persica)
Excerpt: as §1, §2

[10] = system: spring barley (Hordeum vulgare)
Excerpt: as §1, §2

[11] = system: spring wheat (Triticum aestivum)
Excerpt: as §1, §2

[12] = system: wild buckwheat (Polygonum convolvulus)
Excerpt: as §1, §2

[13] = system: wild radish (Raphanus raphanistrum)
Excerpt: as §1, §2

[14] = system: winter barley (Hordeum vulgare)
Excerpt: as §1, §2

Fc1cnc(Oc2c(Br)cccc2Oc2ncc(Cl)cn2)nc1 [Compound 22]
Plant response rating, Blackgrass ([1]; 16 g ai/ha): 20
Plant response rating, Blackgrass ([1]; 31 g ai/ha): 30
Plant response rating, Blackgrass ([1]; 62 g ai/ha): 35
Plant response rating, Blackgrass ([1]; 125 g ai/ha): 40
Plant response rating, Canarygrass ([2]; 16 g ai/ha): 10
Plant response rating, Canarygrass ([2]; 31 g ai/ha): 10
Plant response rating, Canarygrass ([2]; 62 g ai/ha): 20
Plant response rating, Canarygrass ([2]; 125 g ai/ha): 25
Plant response rating, Chickweed ([3]; 16 g ai/ha): 30
Plant response rating, Chickweed ([3]; 31 g ai/ha): 75
Plant response rating, Chickweed ([3]; 62 g ai/ha): 75
Plant response rating, Chickweed ([3]; 125 g ai/ha): 75
Plant response rating, Geranium, Cutleaf ([4]; 16 g ai/ha): 45
Plant response rating, Geranium, Cutleaf ([4]; 31 g ai/ha): 55
Plant response rating, Geranium, Cutleaf ([4]; 62 g ai/ha): 55
Plant response rating, Geranium, Cutleaf ([4]; 125 g ai/ha): 60
Plant response rating, Deadnettle ([5]; 16 g ai/ha): 50
Plant response rating, Deadnettle ([5]; 31 g ai/ha): 50
Plant response rating, Deadnettle ([5]; 62 g ai/ha): 65
Plant response rating, Deadnettle ([5]; 125 g ai/ha): 90
Plant response rating, Field Violet ([6]; 16 g ai/ha): 25
Plant response rating, Field Violet ([6]; 31 g ai/ha): 40
Plant response rating, Field Violet ([6]; 62 g ai/ha): 70
Plant response rating, Field Violet ([6]; 125 g ai/ha): 75
Plant response rating, Kochia (kochia (Kochia scoparia); 16 g ai/ha): 40
Plant response rating, Kochia (kochia (Kochia scoparia); 31 g ai/ha): 45
Plant response rating, Kochia (kochia (Kochia scoparia); 62 g ai/ha): 60
Plant response rating, Kochia (kochia (Kochia scoparia); 125 g ai/ha): 70
Plant response rating, Lambsquarters ([7]; 16 g ai/ha): 50
Plant response rating, Lambsquarters ([7]; 31 g ai/ha): 40
Plant response rating, Lambsquarters ([7]; 62 g ai/ha): 75
Plant response rating, Lambsquarters ([7]; 125 g ai/ha): 70
Plant response rating, Pigweed ([8]; 16 g ai/ha): 75
Plant response rating, Pigweed ([8]; 31 g ai/ha): 80
Plant response rating, Pigweed ([8]; 62 g ai/ha): 75
Plant response rating, Pigweed ([8]; 125 g ai/ha): 95
Plant response rating, Speedwell ([9]; 16 g ai/ha): 30
Plant response rating, Speedwell ([9]; 31 g ai/ha): 40
Plant response rating, Speedwell ([9]; 62 g ai/ha): 75
Plant response rating, Speedwell ([9]; 125 g ai/ha): 90
Plant response rating, Barley, Spring ([10]; 16 g ai/ha): 5
Plant response rating, Barley, Spring ([10]; 31 g ai/ha): 10
Plant response rating, Barley, Spring ([10]; 62 g ai/ha): 15
Plant response rating, Barley, Spring ([10]; 125 g ai/ha): 20
Plant response rating, Wheat, Spring ([11]; 16 g ai/ha): 5
Plant response rating, Wheat, Spring ([11]; 31 g ai/ha): 5
Plant response rating, Wheat, Spring ([11]; 62 g ai/ha): 10
Plant response rating, Wheat, Spring ([11]; 125 g ai/ha): 15
Plant response rating, Buckwheat, Wild ([12]; 16 g ai/ha): 55
Plant response rating, Buckwheat, Wild ([12]; 31 g ai/ha): 65
Plant response rating, Buckwheat, Wild ([12]; 62 g ai/ha): 70
Plant response rating, Buckwheat, Wild ([12]; 125 g ai/ha): 80
Plant response rating, Radish, Wild ([13]; 16 g ai/ha): 25
Plant response rating, Radish, Wild ([13]; 31 g ai/ha): 35
Plant response rating, Radish, Wild ([13]; 62 g ai/ha): 90
Plant response rating, Radish, Wild ([13]; 125 g ai/ha): 90
Plant response rating, Barley, Winter ([14]; 16 g ai/ha): 5
Plant response rating, Barley, Winter ([14]; 31 g ai/ha): 10
Plant response rating, Barley, Winter ([14]; 62 g ai/ha): 10
Plant response rating, Barley, Winter ([14]; 125 g ai/ha): 15

Fc1cccc(Oc2ncc(C(F)(F)F)cn2)c1Oc1ncc(Cl)cn1 [Compound 42, 5-chloro-2-[2-fluoro-6-[[5-(trifluoromethyl)-2-pyrimidinyl]oxy]phenoxy]pyrimidine]
Plant response rating, Blackgrass ([1]; 16 g ai/ha): 20
Plant response rating, Blackgrass ([1]; 31 g ai/ha): 55
Plant response rating, Blackgrass ([1]; 62 g ai/ha): 60
Plant response rating, Blackgrass ([1]; 125 g ai/ha): 75
Plant response rating, Canarygrass ([2]; 16 g ai/ha): 35
Plant response rating, Canarygrass ([2]; 31 g ai/ha): 65
Plant response rating, Canarygrass ([2]; 62 g ai/ha): 70
Plant response rating, Canarygrass ([2]; 125 g ai/ha): 75
Plant response rating, Chickweed ([3]; 16 g ai/ha): 65
Plant response rating, Chickweed ([3]; 31 g ai/ha): 65
Plant response rating, Chickweed ([3]; 62 g ai/ha): 85
Plant response rating, Chickweed ([3]; 125 g ai/ha): 90
Plant response rating, Deadnettle ([5]; 16 g ai/ha): 35
Plant response rating, Deadnettle ([5]; 31 g ai/ha): 40
Plant response rating, Deadnettle ([5]; 62 g ai/ha): 60
Plant response rating, Deadnettle ([5]; 125 g ai/ha): 75
Plant response rating, Field Violet ([6]; 16 g ai/ha): 65
Plant response rating, Field Violet ([6]; 31 g ai/ha): 65
Plant response rating, Field Violet ([6]; 62 g ai/ha): 90
Plant response rating, Field Violet ([6]; 125 g ai/ha): 95
Plant response rating, Kochia (kochia (Kochia scoparia); 16 g ai/ha): 85
Plant response rating, Kochia (kochia (Kochia scoparia); 31 g ai/ha): 100
Plant response rating, Kochia (kochia (Kochia scoparia); 62 g ai/ha): 100
Plant response rating, Kochia (kochia (Kochia scoparia); 125 g ai/ha): 100
Plant response rating, Lambsquarters ([7]; 16 g ai/ha): 70
Plant response rating, Lambsquarters ([7]; 31 g ai/ha): 85
Plant response rating, Lambsquarters ([7]; 62 g ai/ha): 90
Plant response rating, Lambsquarters ([7]; 125 g ai/ha): 95
Plant response rating, Pigweed ([8]; 16 g ai/ha): 100
Plant response rating, Pigweed ([8]; 31 g ai/ha): 100
Plant response rating, Pigweed ([8]; 62 g ai/ha): 100
Plant response rating, Pigweed ([8]; 125 g ai/ha): 100
Plant response rating, Speedwell ([9]; 16 g ai/ha): 40
Plant response rating, Speedwell ([9]; 31 g ai/ha): 50
Plant response rating, Speedwell ([9]; 62 g ai/ha): 80
Plant response rating, Speedwell ([9]; 125 g ai/ha): 80
Plant response rating, Barley, Spring ([10]; 16 g ai/ha): 10
Plant response rating, Barley, Spring ([10]; 31 g ai/ha): 15
Plant response rating, Barley, Spring ([10]; 62 g ai/ha): 20
Plant response rating, Barley, Spring ([10]; 125 g ai/ha): 30
Plant response rating, Wheat, Spring ([11]; 16 g ai/ha): 0
Plant response rating, Wheat, Spring ([11]; 31 g ai/ha): 5
Plant response rating, Wheat, Spring ([11]; 62 g ai/ha): 5
Plant response rating, Wheat, Spring ([11]; 125 g ai/ha): 15
Plant response rating, Buckwheat, Wild ([12]; 16 g ai/ha): 75
Plant response rating, Buckwheat, Wild ([12]; 31 g ai/ha): 80
Plant response rating, Buckwheat, Wild ([12]; 62 g ai/ha): 95
Plant response rating, Buckwheat, Wild ([12]; 125 g ai/ha): 100
Plant response rating, Radish, Wild ([13]; 16 g ai/ha): 80
Plant response rating, Radish, Wild ([13]; 31 g ai/ha): 75
Plant response rating, Radish, Wild ([13]; 62 g ai/ha): 85
Plant response rating, Radish, Wild ([13]; 125 g ai/ha): 90
Plant response rating, Barley, Winter ([14]; 16 g ai/ha): 5
Plant response rating, Barley, Winter ([14]; 31 g ai/ha): 5
Plant response rating, Barley, Winter ([14]; 62 g ai/ha): 10
Plant response rating, Barley, Winter ([14]; 125 g ai/ha): 15
